According to ChEMBL document CHEMBL5465560, “Selectivity Literature for EUbOPEN Chemogenomic Library” (2024):

How the values were obtained:
[1] = molecular target: RAC-beta serine/threonine-protein kinase (Homo sapiens) (UniProt P31751); assay: Selectivity interaction (KinomeScan (DiscoverX)) EUB0000666a AKT2; details: at 10 µM
[2] = molecular target: Phosphatidylinositol 4-phosphate 3-kinase C2 domain-containing subunit beta (Homo sapiens) (UniProt O00750); assay: Selectivity interaction (KinomeScan (DiscoverX)) EUB0000229b PIK3C2B; details: at 10 µM
Phosphatidylinositol 4-phosphate 3-kinase C2 domain-containing subunit beta (Homo sapiens), sequence (O00750 whole entry, the tested form may be a part): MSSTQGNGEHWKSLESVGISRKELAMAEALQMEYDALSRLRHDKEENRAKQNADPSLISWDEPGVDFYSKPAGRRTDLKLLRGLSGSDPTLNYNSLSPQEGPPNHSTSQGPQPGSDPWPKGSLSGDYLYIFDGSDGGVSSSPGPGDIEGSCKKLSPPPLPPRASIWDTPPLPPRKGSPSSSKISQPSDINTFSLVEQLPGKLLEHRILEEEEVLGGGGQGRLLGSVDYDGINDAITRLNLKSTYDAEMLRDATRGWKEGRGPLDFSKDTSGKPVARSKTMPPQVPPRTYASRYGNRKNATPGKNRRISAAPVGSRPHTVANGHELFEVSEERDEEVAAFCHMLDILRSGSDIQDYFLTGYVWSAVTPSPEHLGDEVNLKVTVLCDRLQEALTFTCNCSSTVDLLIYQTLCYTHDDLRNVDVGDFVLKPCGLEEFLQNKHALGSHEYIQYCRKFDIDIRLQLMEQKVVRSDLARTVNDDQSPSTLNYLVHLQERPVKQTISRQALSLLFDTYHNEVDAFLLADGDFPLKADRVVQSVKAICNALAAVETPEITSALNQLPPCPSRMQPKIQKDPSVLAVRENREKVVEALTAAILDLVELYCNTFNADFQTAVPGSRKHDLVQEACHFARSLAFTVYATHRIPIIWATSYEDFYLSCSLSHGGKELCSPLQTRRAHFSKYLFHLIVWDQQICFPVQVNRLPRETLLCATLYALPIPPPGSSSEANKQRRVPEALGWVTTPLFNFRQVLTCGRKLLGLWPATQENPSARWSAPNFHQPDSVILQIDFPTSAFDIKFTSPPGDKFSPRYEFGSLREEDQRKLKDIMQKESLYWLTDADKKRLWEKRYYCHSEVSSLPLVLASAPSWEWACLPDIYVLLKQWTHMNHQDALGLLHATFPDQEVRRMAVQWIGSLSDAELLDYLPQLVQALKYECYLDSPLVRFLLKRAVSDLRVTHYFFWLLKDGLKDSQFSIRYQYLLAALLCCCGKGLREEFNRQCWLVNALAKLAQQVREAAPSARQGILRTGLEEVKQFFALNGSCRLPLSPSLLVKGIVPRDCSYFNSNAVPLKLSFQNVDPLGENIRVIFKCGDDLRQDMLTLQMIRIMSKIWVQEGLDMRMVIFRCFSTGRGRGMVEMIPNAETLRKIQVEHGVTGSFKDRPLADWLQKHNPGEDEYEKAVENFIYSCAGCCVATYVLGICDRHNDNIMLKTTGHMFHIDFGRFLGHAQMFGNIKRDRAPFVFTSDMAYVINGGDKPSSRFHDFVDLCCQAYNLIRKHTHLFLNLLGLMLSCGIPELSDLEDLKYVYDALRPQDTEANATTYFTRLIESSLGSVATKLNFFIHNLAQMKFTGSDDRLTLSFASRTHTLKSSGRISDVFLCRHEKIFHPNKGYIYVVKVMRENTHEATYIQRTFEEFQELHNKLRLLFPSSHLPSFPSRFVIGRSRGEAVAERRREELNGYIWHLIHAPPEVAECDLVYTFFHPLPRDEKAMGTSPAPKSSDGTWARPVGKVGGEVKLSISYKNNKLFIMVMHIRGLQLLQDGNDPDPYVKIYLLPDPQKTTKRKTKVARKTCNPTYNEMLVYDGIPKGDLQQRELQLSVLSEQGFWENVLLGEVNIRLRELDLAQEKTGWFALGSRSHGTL

[3] = molecular target: Substance-P receptor (Homo sapiens) (UniProt P25103); assay: Selectivity interaction (Eurofins CEREP Diversity Profile (receptors and ion channels)) EUB0000279b TACR1; details: at 10 µM
[4] = molecular target: Serine/threonine-protein kinase MARK1 (Homo sapiens) (UniProt Q9P0L2); assay: Selectivity interaction (Kinase panel (KiNativ target engagement assay in Jurkat cells)) EUB0001635a MARK1; format: cell-based; details: at 1 µM
Serine/threonine-protein kinase MARK1 (Homo sapiens), sequence (Q9P0L2 whole entry, looked up): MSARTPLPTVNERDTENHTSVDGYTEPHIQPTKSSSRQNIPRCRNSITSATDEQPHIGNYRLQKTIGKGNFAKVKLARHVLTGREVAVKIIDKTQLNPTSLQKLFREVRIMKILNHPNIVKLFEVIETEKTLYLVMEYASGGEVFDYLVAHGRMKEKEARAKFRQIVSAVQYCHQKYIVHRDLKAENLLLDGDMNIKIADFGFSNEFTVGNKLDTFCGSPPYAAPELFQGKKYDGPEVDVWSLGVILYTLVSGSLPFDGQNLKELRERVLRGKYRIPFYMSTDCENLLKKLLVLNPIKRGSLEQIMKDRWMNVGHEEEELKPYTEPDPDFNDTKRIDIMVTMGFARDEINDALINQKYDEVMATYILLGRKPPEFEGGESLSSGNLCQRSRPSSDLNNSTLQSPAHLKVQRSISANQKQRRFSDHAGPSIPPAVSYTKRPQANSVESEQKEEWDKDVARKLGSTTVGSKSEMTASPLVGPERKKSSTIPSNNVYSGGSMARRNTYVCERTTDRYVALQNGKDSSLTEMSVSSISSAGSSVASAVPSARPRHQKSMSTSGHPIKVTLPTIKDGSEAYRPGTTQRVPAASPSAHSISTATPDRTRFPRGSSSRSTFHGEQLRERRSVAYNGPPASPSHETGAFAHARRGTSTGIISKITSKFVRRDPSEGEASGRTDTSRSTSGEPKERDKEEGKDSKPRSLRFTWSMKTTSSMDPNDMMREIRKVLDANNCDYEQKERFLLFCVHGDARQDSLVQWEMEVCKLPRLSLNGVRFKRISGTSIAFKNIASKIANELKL

[5] = molecular target: T1, Serine/threonine-protein kinase RIO3 (Homo sapiens) (UniProt O14730); assay: Selectivity interaction (KinomeScan (DiscoverX)) EUB0000595a RIOK3; details: at 10 µM
T1 sequence (whole entry): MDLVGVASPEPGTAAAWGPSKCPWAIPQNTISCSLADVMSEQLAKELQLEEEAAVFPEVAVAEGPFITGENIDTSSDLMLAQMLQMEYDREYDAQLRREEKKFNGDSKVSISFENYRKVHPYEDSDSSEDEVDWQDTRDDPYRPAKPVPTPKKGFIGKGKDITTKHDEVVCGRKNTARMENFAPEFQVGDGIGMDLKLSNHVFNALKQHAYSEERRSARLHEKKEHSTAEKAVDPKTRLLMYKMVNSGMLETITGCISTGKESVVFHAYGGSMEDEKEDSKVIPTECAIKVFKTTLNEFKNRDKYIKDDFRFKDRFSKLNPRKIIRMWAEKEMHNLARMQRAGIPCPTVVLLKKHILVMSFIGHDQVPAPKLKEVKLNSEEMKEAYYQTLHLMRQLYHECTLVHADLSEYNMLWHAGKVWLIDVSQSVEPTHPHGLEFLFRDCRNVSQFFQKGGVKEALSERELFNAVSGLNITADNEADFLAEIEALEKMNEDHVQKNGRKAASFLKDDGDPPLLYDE

[6] = molecular target: Serine/threonine-protein kinase mTOR (Homo sapiens, UniProt P42345); assay: Selectivity interaction (Ambit KINOMEscan and KiNATiv profiling in Jurkat cells) EUB0000090b MTOR; format: cell-based; details: at 1 µM
[7] = molecular target: T2, Serine/threonine-protein kinase NLK (Homo sapiens) (UniProt Q9UBE8); details: at 10 µM
T2 sequence (whole entry): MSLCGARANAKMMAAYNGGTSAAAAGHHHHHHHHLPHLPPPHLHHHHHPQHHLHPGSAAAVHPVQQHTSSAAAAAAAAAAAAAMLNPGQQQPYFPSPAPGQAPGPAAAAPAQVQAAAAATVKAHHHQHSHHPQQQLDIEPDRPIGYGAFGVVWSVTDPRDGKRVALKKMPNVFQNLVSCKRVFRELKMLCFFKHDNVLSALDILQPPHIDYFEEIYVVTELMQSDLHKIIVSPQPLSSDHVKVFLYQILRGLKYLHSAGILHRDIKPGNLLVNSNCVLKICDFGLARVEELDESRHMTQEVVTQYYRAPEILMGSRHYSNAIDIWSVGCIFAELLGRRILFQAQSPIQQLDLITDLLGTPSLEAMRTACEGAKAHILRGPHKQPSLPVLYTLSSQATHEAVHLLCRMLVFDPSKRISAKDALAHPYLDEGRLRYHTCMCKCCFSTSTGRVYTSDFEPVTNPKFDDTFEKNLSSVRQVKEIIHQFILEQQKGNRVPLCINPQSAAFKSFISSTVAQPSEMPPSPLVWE

[8] = molecular target: T3, Interleukin-1 receptor-associated kinase 3 (Homo sapiens) (UniProt Q9Y616); assay: Selectivity interaction (KinomeScan (DiscoverX)) EUB0000655a IRAK3; details: at 10 µM
T3 sequence (whole entry): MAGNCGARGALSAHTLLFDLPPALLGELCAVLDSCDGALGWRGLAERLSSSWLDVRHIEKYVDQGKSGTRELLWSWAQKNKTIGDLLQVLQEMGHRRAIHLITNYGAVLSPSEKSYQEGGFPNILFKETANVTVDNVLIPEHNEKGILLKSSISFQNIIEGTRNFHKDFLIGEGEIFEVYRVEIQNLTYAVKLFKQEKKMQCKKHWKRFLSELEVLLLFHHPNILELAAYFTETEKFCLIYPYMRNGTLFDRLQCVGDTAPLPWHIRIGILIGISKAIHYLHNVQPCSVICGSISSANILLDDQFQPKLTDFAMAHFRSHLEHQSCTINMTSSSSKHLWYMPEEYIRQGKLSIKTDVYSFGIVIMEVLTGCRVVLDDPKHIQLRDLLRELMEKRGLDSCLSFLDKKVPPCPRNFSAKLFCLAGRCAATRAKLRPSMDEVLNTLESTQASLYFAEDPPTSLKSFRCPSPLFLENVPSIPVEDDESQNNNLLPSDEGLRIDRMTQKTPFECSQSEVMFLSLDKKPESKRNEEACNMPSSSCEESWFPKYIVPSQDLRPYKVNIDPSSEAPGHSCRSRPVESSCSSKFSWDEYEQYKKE

[9] = molecular target: Serine/threonine-protein kinase N1 (Homo sapiens, UniProt Q16512); assay: Selectivity interaction (Kinase panel (Z-LYTE Assay)) EUB0001632a PKN1; details: at 10 µM
Serine/threonine-protein kinase N1, sequence (Q16512 2-942 limits assumed): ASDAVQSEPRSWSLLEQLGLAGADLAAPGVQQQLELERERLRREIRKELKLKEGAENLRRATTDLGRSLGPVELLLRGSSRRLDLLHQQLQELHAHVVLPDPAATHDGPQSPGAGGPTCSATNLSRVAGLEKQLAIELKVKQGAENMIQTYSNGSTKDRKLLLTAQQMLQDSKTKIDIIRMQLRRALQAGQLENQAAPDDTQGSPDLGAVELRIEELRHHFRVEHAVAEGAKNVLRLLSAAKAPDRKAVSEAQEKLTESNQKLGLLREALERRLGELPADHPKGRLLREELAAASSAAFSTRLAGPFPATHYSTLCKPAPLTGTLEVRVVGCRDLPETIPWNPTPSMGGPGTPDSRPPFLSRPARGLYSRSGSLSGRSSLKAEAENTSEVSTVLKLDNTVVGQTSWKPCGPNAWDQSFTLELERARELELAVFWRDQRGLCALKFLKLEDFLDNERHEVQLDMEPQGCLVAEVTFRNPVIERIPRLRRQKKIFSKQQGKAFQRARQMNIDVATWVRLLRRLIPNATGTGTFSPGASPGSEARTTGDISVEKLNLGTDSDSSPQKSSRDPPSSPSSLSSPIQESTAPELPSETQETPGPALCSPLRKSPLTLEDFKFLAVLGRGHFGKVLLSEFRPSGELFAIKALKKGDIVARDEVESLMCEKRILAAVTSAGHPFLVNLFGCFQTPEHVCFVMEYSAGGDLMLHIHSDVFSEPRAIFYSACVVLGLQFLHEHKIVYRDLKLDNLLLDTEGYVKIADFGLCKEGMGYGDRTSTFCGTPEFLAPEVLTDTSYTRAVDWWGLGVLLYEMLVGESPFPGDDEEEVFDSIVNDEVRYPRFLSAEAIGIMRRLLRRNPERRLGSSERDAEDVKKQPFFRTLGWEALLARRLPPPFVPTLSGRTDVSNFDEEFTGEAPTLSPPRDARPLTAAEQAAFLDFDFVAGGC

[10] = molecular target: Calcium/calmodulin-dependent protein kinase type II subunit alpha (Homo sapiens, UniProt Q9UQM7); assay: Selectivity interaction (Kinase panel (Z-LYTE Assay)) EUB0001632a CAMK2A; details: at 10 µM
Calcium/calmodulin-dependent protein kinase type II subunit alpha, sequence (Q9UQM7 whole entry): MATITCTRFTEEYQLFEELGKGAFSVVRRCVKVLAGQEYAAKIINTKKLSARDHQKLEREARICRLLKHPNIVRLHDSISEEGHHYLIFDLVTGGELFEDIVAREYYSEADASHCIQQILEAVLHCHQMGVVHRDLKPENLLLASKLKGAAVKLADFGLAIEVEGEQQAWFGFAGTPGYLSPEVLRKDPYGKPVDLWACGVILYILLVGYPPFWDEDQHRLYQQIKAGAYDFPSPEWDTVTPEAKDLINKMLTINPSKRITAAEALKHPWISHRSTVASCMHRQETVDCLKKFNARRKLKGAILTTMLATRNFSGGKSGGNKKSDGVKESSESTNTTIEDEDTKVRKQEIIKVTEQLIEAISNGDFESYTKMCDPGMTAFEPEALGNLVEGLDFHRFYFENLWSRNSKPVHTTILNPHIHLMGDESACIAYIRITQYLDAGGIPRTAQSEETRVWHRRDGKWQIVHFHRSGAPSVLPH

[11] = molecular target: Angiopoietin-1 receptor (Homo sapiens) (UniProt Q02763); assay: (§1) Selectivity interaction (ProQinase) EUB0000171b TEK
Angiopoietin-1 receptor (Homo sapiens), sequence (Q02763 whole entry): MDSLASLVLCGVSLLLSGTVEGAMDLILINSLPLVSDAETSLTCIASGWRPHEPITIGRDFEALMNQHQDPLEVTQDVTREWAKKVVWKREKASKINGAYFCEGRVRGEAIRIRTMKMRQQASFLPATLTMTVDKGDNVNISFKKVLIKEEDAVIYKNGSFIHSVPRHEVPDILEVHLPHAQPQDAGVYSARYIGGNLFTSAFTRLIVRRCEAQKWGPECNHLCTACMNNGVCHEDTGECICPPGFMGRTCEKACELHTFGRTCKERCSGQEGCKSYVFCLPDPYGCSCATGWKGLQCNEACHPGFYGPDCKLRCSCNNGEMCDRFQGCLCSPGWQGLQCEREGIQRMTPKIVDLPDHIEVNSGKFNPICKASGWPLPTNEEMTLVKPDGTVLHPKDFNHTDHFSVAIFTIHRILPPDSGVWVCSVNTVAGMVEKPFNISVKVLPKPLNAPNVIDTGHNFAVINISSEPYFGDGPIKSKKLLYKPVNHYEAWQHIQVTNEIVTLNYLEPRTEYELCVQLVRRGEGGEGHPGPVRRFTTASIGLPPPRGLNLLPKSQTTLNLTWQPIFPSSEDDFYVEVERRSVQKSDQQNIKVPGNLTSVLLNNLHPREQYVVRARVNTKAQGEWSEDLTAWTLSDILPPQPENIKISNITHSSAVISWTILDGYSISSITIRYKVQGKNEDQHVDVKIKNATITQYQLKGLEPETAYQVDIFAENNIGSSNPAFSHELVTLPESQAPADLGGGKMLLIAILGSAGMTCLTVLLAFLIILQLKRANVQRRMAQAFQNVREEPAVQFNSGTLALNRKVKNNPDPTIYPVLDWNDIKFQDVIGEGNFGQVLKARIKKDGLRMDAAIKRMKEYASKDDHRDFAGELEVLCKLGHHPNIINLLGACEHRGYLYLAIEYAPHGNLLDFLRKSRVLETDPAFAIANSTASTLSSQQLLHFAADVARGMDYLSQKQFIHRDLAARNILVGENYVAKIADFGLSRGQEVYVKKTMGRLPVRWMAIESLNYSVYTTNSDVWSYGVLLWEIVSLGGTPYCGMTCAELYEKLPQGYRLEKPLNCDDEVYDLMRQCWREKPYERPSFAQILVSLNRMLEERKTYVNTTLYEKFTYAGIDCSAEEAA

[12] = tested on: Angiopoietin-1 receptor (Homo sapiens), Q02763 [R849W]; assay: as §1
Angiopoietin-1 receptor (Homo sapiens), Q02763 [R849W], sequence (Q02763 whole entry R849W): as the sequence (Q02763 whole entry) above, with R849W counted along it

[13] = tested on: Angiopoietin-1 receptor (Homo sapiens), Q02763 [Y897S]; assay: as §1
Angiopoietin-1 receptor (Homo sapiens), Q02763 [Y897S], sequence (Q02763 whole entry Y897S): as the sequence (Q02763 whole entry) above, with Y897S counted along it

`O=C(NOC[C@H](O)CO)c1ccc(F)c(F)c1Nc1ccc(I)cc1F` was tested, and the % of control [1] was 100%.
`COc1cc(N(C)c2ccnc3ccc(C(F)(F)F)cc23)cc(OC)c1OC` gave a % binding [2] of 100%.
Molecule `CC(=O)c1cc(-c2ccccc2OCC2CC2)c2ncccn12` has a % of control [3] of 72%.
`C=CC(=O)Nc1ccc(C(=O)Nc2[nH]nc3c2CN(C(=O)N[C@H](CN(C)C)c2ccccc2)C3(C)C)cc1` showed a % of engagement [4] of 8.7%.
`COCC(=O)NC/C=C/c1ccc2ncnc(Nc3ccc(Oc4ccc(C)nc4)c(C)c3)c2c1` [CP-724714] gave a % of control [5] of 100%.
Work on `CN(C)C/C=C/C(=O)Nc1ccc(C(=O)N2CCCC(Nc3ncc(Cl)c(-c4c[nH]c5ccccc45)n3)C2)cc1` (stereo unspecified) yielded a % of control [6] of 100%.
`Cc1cc([C@@H](C)Nc2ccccc2C(=O)O)c2nc(N3CCOCC3)cc(=O)n2c1` [AZD-6482] showed a % of control [7] of 94%.
In the case of `CN(C)CCOc1ccc(-c2nc(-c3ccncc3)c(-c3ccc4c(c3)CC/C4=N\O)[nH]2)cc1`, the % of control [8] is reported as 71%.
Work on `Cn1cc(-n2cnc3c(NCc4nc5cc(Cl)c(Cl)cc5[nH]4)nc(N4CCOCC4)nc32)cn1` yielded a % of control [9] of -4.72% and a % of control [10] of -0.947%.
In the case of `C=CC(=O)Nc1cccc(C(=O)Nc2ccc(Nc3cc(-c4[nH]c(SC)nc4C)ccn3)cc2)c1`, the % of control ([11]; at 1 µM) is reported as 85%, the % of control ([11]; at 5 µM) is reported as 81% and the % of control ([12]; at 1 µM) is reported as 92%. The % of control ([12]; at 5 µM) was 107%, the % of control ([13]; at 1 µM) was 85% and the % of control ([13]; at 5 µM) was 85%.
